According to PubChem BioAssay (NCI):
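Test compounds were applied to cells in 96-well plates for 48 hours at 5 doses. At the GI50, growth is halved. TGI denotes the concentration required for complete inhibition of growth.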

Key:
Experiment in all cases: growth of human tumour cells (NCI), 48 h
COLO 205 colon = tested on: COLO 205 colon
OVCAR-5 ovarian = tested on: OVCAR-5 ovarian
OVCAR-8 ovarian = tested on: OVCAR-8 ovarian
A498 renal = tested on: A498 renal
CCRF-CEM leukemia = tested on: CCRF-CEM leukemia
SK-MEL-28 melanoma = tested on: SK-MEL-28 melanoma
M14 melanoma = tested on: M14 melanoma
NCI-H522 lung = tested on: NCI-H522 lung

SMILES	GI50 (COLO 205 colon) [µM]	TGI (COLO 205 colon) [µM]	GI50 (OVCAR-5 ovarian) [µM]	TGI (OVCAR-5 ovarian) [µM]	GI50 (OVCAR-8 ovarian) [µM]	TGI (OVCAR-8 ovarian) [µM]	GI50 (A498 renal) [µM]	TGI (A498 renal) [µM]	GI50 (CCRF-CEM leukemia) [µM]	TGI (CCRF-CEM leukemia) [µM]	GI50 (SK-MEL-28 melanoma) [µM]	TGI (SK-MEL-28 melanoma) [µM]	GI50 (M14 melanoma) [µM]	TGI (M14 melanoma) [µM]	TGI (NCI-H522 lung) [µM]	GI50 (NCI-H522 lung) [µM]
CC[O-].CC[O-].O=C1C(=C([O-])c2ccccc2)C(=O)c2ccccc21.O=C1C(=C([O-])c2ccccc2)C(=O)c2ccccc21.[Ti+4]	29.2	> 100	> 100	> 100	92.7	> 100	> 100	> 100	> 100	> 100	> 10	> 10	> 100	> 100	–	–
CSc1nc2c(c(O)c(C)c(=O)n2C2OC(COC(C)=O)C(OC(C)=O)C(OC(C)=O)C2OC(C)=O)c(=O)n1C (centres undefined)	–	> 100	–	> 100	–	> 100	–	> 100	–	> 100	–	> 100	–	> 100	> 100	–
Cc1cc(Cl)ccc1NC(=O)C(=O)Cc1nc2ccc(C(=O)c3ccccc3)cc2[nH]c1=O	–	> 100	–	–	–	> 100	–	–	–	> 100	–	> 100	–	> 100	> 100	–
Clc1ccc([O][In]([O]c2ccc(Cl)cn2)[O]c2ccc(Cl)cn2)nc1	> 100	> 100	> 100	> 100	> 100	> 100	–	–	> 100	> 100	> 100	> 100	> 100	> 100	–	–
COc1ccc(C(C2=C(C)C(=O)c3ccccc3C2=O)c2ccc(C(C)C)cc(=O)c2O)cc1 (centres undefined)	–	20.7	–	7.53	–	45.7	–	–	–	> 100	–	–	–	6.24	48.6	–
CC(C)N(C(=O)C12C3C4C1C1C2C3C41C(O)C(C)(C)C)C(C)C (centres undefined)	–	> 50	–	–	–	> 50	–	> 50	–	> 50	–	> 50	–	> 50	> 50	–
Fc1cccc(Cl)c1C1SCc2nc3ccccc3n21 (centres undefined)	–	47.3	–	> 100	–	> 100	–	> 100	–	> 100	–	–	–	> 100	87	–
CC(=O)N(CCN)CCN	–	> 10	–	–	–	> 10	–	> 10	–	> 10	–	> 10	–	> 10	> 10	–
Cc1cc(O)c2c(c1)C(O)(c1ccc3c(c1O)C(=O)c1c(O)cc(C)cc1C3(O)C1OC(CO)C(O)C(O)C1O)c1cccc(O)c1C2=O (centres undefined)	–	–	–	32.3	–	34	–	26.5	–	25.8	–	28.9	–	30	–	–
COc1cc2nncc(Sc3cnnc4ccccc34)c2cc1OC	–	> 100	–	64.6	–	–	–	82	–	73.9	–	60.9	–	> 100	29.8	–
COc1ccc(-n2nnc3c(sc4ccccc43)c2=O)cc1	> 100	> 100	–	–	–	–	–	–	–	–	> 100	> 100	> 100	> 100	> 100	> 100
O=c1nc(-c2ccccc2)c2c3c(cccn13)CCC2	–	–	–	> 100	–	> 100	–	> 100	–	> 100	–	> 100	–	> 100	> 100	–
O=[N+]([O-])c1ccc(N=Nc2c(O)[nH]c3ccc([N+](=O)[O-])cc23)cc1	–	> 100	–	–	–	35	–	> 100	–	> 100	–	47.4	–	38	50.4	–
COC(=O)C1=CCON(c2ccccc2)C1c1ccccc1 (centres undefined)	–	> 100	–	> 100	–	–	–	–	–	> 100	–	> 100	–	> 100	93.8	–
CON(C)C(=O)C(C)NC(=O)OCc1ccccc1 (centres undefined)	–	–	–	> 100	–	> 100	–	> 100	–	> 100	–	> 100	–	> 100	–	–
CCc1ccccc1NC(=O)C(=O)C(C(=O)c1ccc(OC)cc1)c1ccc(OC)cc1 (centres undefined)	–	> 100	–	> 100	–	> 100	–	> 100	–	> 100	–	–	–	> 100	> 100	–
O=C1c2ccccc2N2OC3(N4CCCC4)CCCC3C12c1ccccc1 (centres undefined)	–	> 100	–	–	–	> 100	–	> 100	–	> 100	–	> 100	–	> 100	> 100	–
O=C(c1ccccc1)c1c(CC(O)c2cccnc2)n(C(=O)c2ccccc2)c2ccccc12 (centres undefined)	–	40.6	–	37.6	–	> 100	–	–	–	63.4	–	31.5	–	33.5	30.1	–
Cc1cc([N+](=O)[O-])c(C)c2c1[nH]c1ccc(/C(CCC3CCCC3)=N\N)cc12	–	33.1	–	–	–	75	–	–	–	44.9	–	34	–	39.5	35	–
O=C1[C@@H](c2ccc(Cl)cc2)[C@H]2CC=C[C@H]2N1O	–	> 100	–	–	–	> 100	–	–	–	> 100	–	> 100	–	> 100	> 100	–
Cc1cc(C)c2c(c1)CN1CN2Cc2cc(C)cc(C)c21	–	42.6	–	> 100	–	39.5	–	–	–	68.2	–	44.4	–	51.8	53.4	–
